Measured values taken from article PMC7233811, “Small molecule inhibits T-cell acute lymphoblastic leukaemia oncogenic interaction through conformational modulation of LMO2” (Oncotarget, 2020).

Columns and labels:
[1] = molecular target: T1, LMO2 (LIM only protein 2) (Homo sapiens, UniProt P25791); test: microscale thermophoresis (NT647-labelled protein); supported by STD-NMR, SAXS and HTRF PPI inhibition (IC50 […]); assay type: binding
T1 construct: tandem LIM-domain construct of LMO2 fused to the LDB1^LID (FLINC2); with LDB1 LID (fused)
T1 sequence (P25791 30-153 limits assumed): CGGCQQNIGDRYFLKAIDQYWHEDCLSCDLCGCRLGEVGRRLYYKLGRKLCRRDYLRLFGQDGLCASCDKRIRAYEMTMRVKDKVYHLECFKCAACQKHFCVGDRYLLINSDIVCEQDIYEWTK
T1 sequence (Q86U70 336-375 partner limits assumed): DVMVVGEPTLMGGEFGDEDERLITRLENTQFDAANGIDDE

[2] = molecular target: SCL/E2A complex (Homo sapiens) (UniProt P17542); test: given as Ka; conditions: cited from earlier work
SCL/E2A complex (Homo sapiens), sequence (P17542 whole entry, chain 1 of 2): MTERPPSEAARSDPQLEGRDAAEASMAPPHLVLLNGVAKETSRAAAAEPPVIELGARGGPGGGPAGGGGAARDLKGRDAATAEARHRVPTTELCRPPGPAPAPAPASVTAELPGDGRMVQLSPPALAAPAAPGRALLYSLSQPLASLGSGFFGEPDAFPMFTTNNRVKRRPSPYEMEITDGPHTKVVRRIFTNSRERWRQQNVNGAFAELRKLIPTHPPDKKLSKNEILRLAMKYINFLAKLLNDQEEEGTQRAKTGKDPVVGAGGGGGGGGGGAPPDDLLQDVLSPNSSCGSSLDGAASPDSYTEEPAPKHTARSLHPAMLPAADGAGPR
SCL/E2A complex (Homo sapiens), sequence (P15923 whole entry, chain 2 of 2, further chain): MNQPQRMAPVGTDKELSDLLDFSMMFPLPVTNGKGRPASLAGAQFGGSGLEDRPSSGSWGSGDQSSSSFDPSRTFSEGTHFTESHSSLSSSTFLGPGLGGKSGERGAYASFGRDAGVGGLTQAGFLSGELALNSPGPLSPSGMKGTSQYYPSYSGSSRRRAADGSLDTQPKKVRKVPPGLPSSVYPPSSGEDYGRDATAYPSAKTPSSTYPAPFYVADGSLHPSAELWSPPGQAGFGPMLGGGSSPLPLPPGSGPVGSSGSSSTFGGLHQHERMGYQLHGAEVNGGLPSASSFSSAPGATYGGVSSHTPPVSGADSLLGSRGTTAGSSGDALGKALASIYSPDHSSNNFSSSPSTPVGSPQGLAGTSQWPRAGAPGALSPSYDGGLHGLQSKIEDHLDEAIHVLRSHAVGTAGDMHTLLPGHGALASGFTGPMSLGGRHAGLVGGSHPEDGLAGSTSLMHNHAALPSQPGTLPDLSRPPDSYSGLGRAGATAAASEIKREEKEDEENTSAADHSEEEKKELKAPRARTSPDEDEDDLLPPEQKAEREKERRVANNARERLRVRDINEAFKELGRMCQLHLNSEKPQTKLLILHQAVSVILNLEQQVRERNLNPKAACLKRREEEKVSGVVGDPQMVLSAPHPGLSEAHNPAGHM

LMO2, sequence (P25791 whole entry, the tested form may be a part): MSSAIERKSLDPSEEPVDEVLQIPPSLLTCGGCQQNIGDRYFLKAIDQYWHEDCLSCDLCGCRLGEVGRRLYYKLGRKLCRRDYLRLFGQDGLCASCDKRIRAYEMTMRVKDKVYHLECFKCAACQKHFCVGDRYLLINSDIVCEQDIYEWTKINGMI

Kd [1] [nM]	Compound	Kd [2] [nM]
1200	Cc1cc(C)cc(C2(C(=O)N3CCOCC(Cc4ccc5nccn5c4)C3)CCOCC2)c1 (centres unmarked) [3K7]	–
–	LMO2 (from UniProt P25791)	5.56
